Patent US11117866B2, “Terpineol and preparation method and application thereof” (priority 2016, dated 2021)
Where two headings read alike, the source gives them in different places.

Experiments:
[1] = tested on: Isolated tracheal strip (trachea smooth muscle); assay: Isolated tracheal strip relaxation (diastolic rate) after acetylcholine chloride contraction; conditions: read-out: Relaxation rate %
Protocol: Method: Isolated tracheal strip was fabricated, and was placed in the in-vitro tracheal experiment device; 100 μL acetylcholine chloride was added following tension adjustment and balancing to make the trachea extract, and the tension of trachea was increased. Once the tension was increased to the maximum value, and became balanced, corresponding trial drug was fed to inhibit extraction of the trachea; isometric muscle tension variation curve was recorded, and diastolic rate of smooth muscle was calculated. Diastolic rate=(tension after radiography−tension after dosing)/(tension after radiography)*100%.

Rat asthma model = assay: Rat asthma model, nucleated (inflammatory) cell count in bronchi alveolar lavage fluid (BALF); assay type: in vivo; conditions: BALF total nucleated cells, model group 182.50 ± 24.52, blank group 85.50 ± 18.70
Excerpt: Rat asthma model was established, and proceeded with blunt dissection of trachea following the last feeding of drug for trachea alveolar washing. Bronchi alveolar lavage fluid (BALF) was collected, and total number of nucleated cells were counted.

Rat PAH model = assay: Monocrotaline incurred pulmonary hypertension in rats, right ventricular systolic pressure; assay type: in vivo; conditions: 200 mg/Kg daily, 30th day, right cardiac catheterization, x ± s, model group 43.78 ± 2.14, normal group 21.08 ± 2.13
Protocol: Method: Rat PAH model was established, and normal saline was fed to contrast group with volume equivalent to that for injection. Drug for interference was fed 2 days after radiography. 200 mg/Kg per compound was fed on daily basis. Normal saline was used with equivalent volume for lavage to the contrast group and model group respectively. Right ventricular systolic pressure of rat was measured by means of Right cardiac catheterization at anesthesia state on the 30th day.

tracheal smooth muscle = conditions: guinea pig, cited from earlier work
isolated atria = conditions: guinea pig; cited from earlier work
[2] = 0.75 mmol/L, isolated tracheal strip contracted with acetylcholine chloride
[3] = 1.25 mmol/L, isolated tracheal strip contracted with acetylcholine chloride

Row | SMILES | inhibition at 750 µM [1, 2] [%] | inhibition at 1250 µM [1, 3] [%] | Inflammatory cell (Rat asthma model) | RVSP (Rat PAH model) | inhibition at 750 µM [1] [%] | inhibition at 1250 µM [1] [%] | cAMP content in the tracheal smooth muscle (tracheal smooth muscle) | air passage relaxation (tracheal smooth muscle; in vivo experiment and experiment in vitro) | effect on isolated atria (isolated atria)
1 | CCCCCCCCCCCCCC(=O)OC(C)(C)C1CC=C(C)CC1 (stereo not drawn) [A] | 17.6 ± 2.89 | 16.6 ± 14.5 | 139.50 ± 31.24^Δ × 10^8/L | 35.07 ± 2.81 mmHg |  |  |  |  | 
2 | Cn1c(=O)c2[nH]cnc2n(C)c1=O [Aminophylline, reference compound] | 43.7 ± 10.2 | 56.7 ± 9.26 |  |  |  |  |  |  | 
3 | CCCCCCCCCCCCCCCCCC(=O)OC(C)(C)C1CC=C(C)CC1 (stereo not drawn) [B] | 15.4 ± 9.83 | 10.6 ± 13.8 | 134.50 ± 25.27^Δ × 10^8/L | 36.08 ± 2.01 mmHg |  |  |  |  | 
4 | CC1=CCC(C(C)(C)OC(=O)CN(C)CCO)CC1 (stereo not drawn) [C] | 50.2 ± 7.3 | 76.8 ± 7.7 | 77.50 ± 68.81 × 10^8/L | 22.33 ± 1.03^ΔΔ## mmHg |  |  |  |  | 
5 | CC1=CCC(C(C)(C)OC(=O)CN2CCOCC2)CC1 (stereo not drawn) [D] | 36.6 ± 13.8 | 59.4 ± 14.7 | 110.5 ± 16.21 × 10^8/L | 32.04 ± 1.12^Δ mmHg |  |  |  |  | 
6 | CC1=CCC(C(C)(C)OC(=O)CO[N+](=O)[O-])CC1 (stereo not drawn) [E] |  |  | 139.50 ± 20.71^Δ × 10^8/L | 35.53 ± 3.02 mmHg | 17.1 ± 6.98 | 10.8 ± 4.46 |  |  | 
7 | CCN(CC)CC(=O)OC(C)(C)C1CC=C(C)CC1 (stereo not drawn) [F] | 42.3 ± 10.4 | 46.7 ± 3.56 | 101.50 ± 14.68 × 10^8/L | 23.35 ± 1.04^ΔΔ## mmHg |  |  |  |  | 
8 | CC1=CCC(C(C)(C)OC(=O)CSCCO)CC1 (stereo not drawn) [G] | 48.3 ± 9.36 | 81.1 ± 10.2 | 76.00 ± 18.15 × 10^8/L | 21.08 ± 1.31^ΔΔ# mmHg |  |  |  |  | 
9 | CC1=CCC(C(C)(C)OC(=O)CN2CCC(=O)CC2)CC1 (stereo not drawn) [H] | 20.9 ± 7.55 | 43.8 ± 10.2 | 123.00 ± 17.23 × 10^8/L | 30.33 ± 2.03^Δ mmHg |  |  |  |  | 
10 | CC1=CCC(C(C)(C)OC(=O)CN2CCC(O)CC2)CC1 (stereo not drawn) [J] | 35.2 ± 13.9 | 71.5 ± 15.4 | 99.50 ± 21.23 × 10^8/L | 27.06 ± 1.17^Δ mmHg |  |  |  |  | 
11 | CC1=CCC(C(C)(C)OC(=O)CN2CCCCC2)CC1 (stereo not drawn) [L] | 42.5 ± 6.14 | 52.2 ± 6.98 | 110.50 ± 16.18 × 10^8/L | 25.36 ± 1.17^ΔΔ# mmHg |  |  |  |  | 
12 | CC1=CCC(C(C)(C)OC(=O)CN(CCO)CCO)CC1 (stereo not drawn) [M] | 27.7 ± 2.08 | 61 ± 5.07 | 97.50 ± 13.11 × 10^8/L | 33.36 ± 2.05^Δ mmHg |  |  |  |  | 
13 | CC1CCC(C(C)(C)O)CC1 (stereo not drawn) [N] | 27.2 ± 14.1 | 41.3 ± 13.2 | 140.00 ± 26.21^Δ × 10^8/L | 32.56 ± 2.82^Δ mmHg |  |  |  |  | 
14 | CC1=CCC(C(C)(C)O)CC1 (stereo not drawn) [α-T, α,α,4-Trimethylcyclohex-3-en-1-methanol, reference compound] | 28.4 ± 16.1 | 38.4 ± 13.6 | 113.00 ± 21.27 × 10^8/L | 33.03 ± 2.22^Δ mmHg |  |  | increase cAMP content | available for air passage relaxation | inhibiting effect
